# “And” between values parts separate entries of the source, which are not always exact repeats. Equal values may be shown once. Read-outs that look alike come from different tables or passages of the source.
# What was measured:
# HCT 116 = HCT 116 human colon cancer xenograft model; type: in vivo, SCID mice; conditions: 25 mg/Kg (M-F)
# Method: (§1) All experiments were carried out using male or female 6-8 week old SCID Hsd:ICR(CD-1) mice (Harlan, Indianapolis, Ind.). A-549 cells were harvested, resuspended in DMEM minus serum, and injected subcutaneously into the right flanks (4×10^6 cells/flank in a 300 μL volume). HCT 116 cells were harvested, resuspended in McCoy's 5A minus serum, and injected subcutaneously into the right and left flanks (5×10^6 cells/flank in a 300 μL volume). Tumor volumes were determined by measuring the length (1) and the width (w) and calculating the volume (V=1 w^2/2). Depending on the study, the tumors were between about 150 mm^3-about 800 mm^3 at the time of animal randomization into treatment groups (n=8-10 mice per group).
# (§2) Control animals received 200 μL injections of vehicle only.
# (§3) Evaluation of the results included statistical analysis of differences in tumor size between test and control groups at the end of each treatment period. Group means were compared using a one-way ANOVA. If the ANOVA was significant, i.e., p≦0.05, a Dunnett's multiple comparison test was used to determine which groups were different. Only animals surviving to the completion of the treatment period were included in the analysis.
# [1] = cited from earlier work
# [2] = tested on: A549 human lung tumor xenografts; experiment: A549 human lung tumor xenograft model; type: in vivo, SCID mice; conditions: for Reduction in Tumor Volume (% decrease relative to control), positive control: 20 mg/Kg (M, W, F); for Reduction in Tumor Volume (% decrease relative to control), positive control / Tumor volume compared to control animals, single agent alone: 2 week treatment; for Tumor volume compared to control animals, single agent alone: female SCID mice
# Method: as §1, §2, §3
# (§4) A549 cells were injected subcutaneously into female SCID mice and the tumor volumes were allowed to reach about 400 mm^3 prior to animal randomization. Animals were administered one of the above combinations or saline vehicle control intraperitoneally five times per week (each day, Monday through Friday) for two weeks.
# as §4, with “male” for “female”, “drug combination” for “one of the above combinations”, “or” for “or saline”, “for three weeks. Treatment was stopped for a one week recovery period, then continued as before for an additional” for “for”
# [3] = gastrointestinal tract; cited from earlier work
# [4] = mouse, in vivo
# Method: Unless otherwise stated, drugs were administered daily Monday to Friday. Paclitaxel was administered 3 days per week, Monday, Wednesday, and Friday only. All drugs were administered by intraperitoneal injection in a volume of 100 μL/25 grams. Animals undergoing combination therapy received two individual injections for a total of 200 μL per mouse. Control animals received 200 μL injections of vehicle only.
# [5] = mice, single intraperitoneal injection 10 mg/kg; cited from earlier work
# [6] = tested on: phosphatases of regenerating liver (PRL); conditions: cited from earlier work
# [7] = biological target: T1, protein tyrosine phosphatase 1B (PTP1B) (Homo sapiens, UniProt P18031); conditions: cited from earlier work
# T1 sequence (P18031 1-435): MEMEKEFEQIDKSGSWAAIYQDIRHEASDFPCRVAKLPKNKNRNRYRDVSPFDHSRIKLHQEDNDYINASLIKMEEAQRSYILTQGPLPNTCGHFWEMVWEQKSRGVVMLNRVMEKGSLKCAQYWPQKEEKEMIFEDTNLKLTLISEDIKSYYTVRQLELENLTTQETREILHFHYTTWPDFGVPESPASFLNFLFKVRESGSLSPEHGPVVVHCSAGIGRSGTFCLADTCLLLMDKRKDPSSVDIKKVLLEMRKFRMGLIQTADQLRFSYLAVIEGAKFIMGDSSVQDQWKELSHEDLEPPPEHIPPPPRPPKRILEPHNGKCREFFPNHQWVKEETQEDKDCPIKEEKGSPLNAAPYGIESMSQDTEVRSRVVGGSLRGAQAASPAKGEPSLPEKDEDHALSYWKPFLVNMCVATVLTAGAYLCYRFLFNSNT
# endo-exonuclease = conditions: PCT Publication No. WO 01/35935; cited from earlier work
compound,measurement,setting,value
"O=c1[nH]cc(F)c(=O)[nH]1 [5-FU, 5-fluorouracil]","Reduction in Tumor Volume (% decrease relative to control), positive control",HCT 116,47%
"N=C(N)c1ccc(OCCCCCOc2ccc(C(=N)N)cc2)cc1 [Pentamidine isethionate, 4,4′-diamidino-diphenoxypentane di(β-hydroxyethanesulfonate)]",Solubility,"[1]; ether, acetone, and chloroform",insoluble
same,Solubility,[1]; water and glycerin,soluble
"CC(=O)O[C@H]1C(=O)[C@@]2(C)[C@H]([C@H](OC(=O)c3ccccc3)[C@]3(O)C[C@H](OC(=O)[C@H](O)[C@@H](NC(=O)c4ccccc4)c4ccccc4)C(C)=C1C3(C)C)[C@]1(OC(C)=O)CO[C@@H]1C[C@@H]2O [Taxol, paclitaxel]","Reduction in Tumor Volume (% decrease relative to control), positive control",[2],24% and 29%
same,"Reduction in Tumor Volume (% decrease relative to control), positive control",[2]; listed as paclitaxel,24%
same,Tumor volume less than vehicle control,"[2]; 20 mg/Kg, end of first treatment period (3 weeks), male SCID mice",27%
CN(C)CCCN1c2ccccc2Sc2ccc(Cl)cc21 [chlorpromazine],Absorption,[3],readily absorbed
same,"Tumor volume compared to control animals, single agent alone",[2],no decrease in tumor volumes
same,Time to sedation after administration,"[4]; SCID Hsd:ICR(CD-1), ip",≤ 10 min
same,Sedation and hypothermia at lower doses,[4],reduced period of sedation and associated hypothermia
N=C(N)c1ccc(OCCCCCOc2ccc(C(=N)N)cc2)cc1 [pentamidine],Tissue distribution,[5],"concentration in the kidneys was the highest, followed by that in the liver"
same,Inhibition of PRL,[6],potent inhibitor
same,"Tumor volume compared to control animals, single agent alone",[2],no decrease in tumor volumes
same,Inhibition of PTP1B,[7],effective inhibitor
same,Inhibition of endo-exonuclease activity,endo-exonuclease,inhibit the activity

# Source: patent US20070099905A1, “Combinations of drugs for the treatment of neoplasms” (priority 2002, published 2007)
